Where two headings read alike, the source gives them in different places.
Experiments:
human FKBP51FK1 = biological target: T1, human FKBP51FK1 (Homo sapiens, UniProt Q13451); test: Fluorescence polarization assay, binding to FK1 domain of FKBP51; settings: for inhibition at 5 µM: read-out: FKBP 51 FK1 % inhibition; for IC50: binding affinity, fluorescence polarization assay
T1 sequence (Q13451 42-130 limits assumed): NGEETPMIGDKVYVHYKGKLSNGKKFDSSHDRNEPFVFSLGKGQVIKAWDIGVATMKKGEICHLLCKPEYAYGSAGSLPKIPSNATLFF

human FKBP52FK1 = biological target: T2, human FKBP52FK1 (Homo sapiens, UniProt Q02790); test: Fluorescence polarization assay, binding to FK1 domain of FKBP52; settings: for inhibition at 5 µM: at a concentration of 5 μM, library testing, read-out: FKBP52 FK1 % inhibition; for IC50: binding affinity, fluorescence polarization assay
T2 sequence (Q02790 50-138 limits assumed): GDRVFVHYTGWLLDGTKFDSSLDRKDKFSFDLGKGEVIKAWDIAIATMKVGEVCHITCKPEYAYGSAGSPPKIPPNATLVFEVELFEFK

[1] = at a concentration of 5 μM, library testing

Compound | inhibition at 5 µM (human FKBP51FK1; [1]) | inhibition at 5 µM (human FKBP52FK1) | IC50 (human FKBP51FK1) | IC50 (human FKBP52FK1) | inhibition at 5 µM (human FKBP51FK1)
COc1ccc(CC[C@@H](OC(=O)[C@@H]2CCCCN2S(=O)(=O)c2cccs2)c2cccc(OCC(=O)O)c2)cc1OC [Compound 55, 2-(3-((R)-3-(3,4-dimethoxyphenyl)-1-((S)-1-(thiophen-2-ylsulfonyl)piperidine-2-carbonyloxy)propyl)phenoxy)acetic acid] | 3.2% | 8.5% | – | – | –
2-(3-((R)-1-((S)-1-(3-cyanophenylsulfonyl)piperidine-2-carbonyloxy)-3-(3,4-dimethoxyphen-yl)propyl)phenoxy)acetic acid [Compound 6] | – | – | 28.5 ± 9.6 µM | 69.9 ± 65.4 µM | –
COc1ccc(CC[C@@H](OC(=O)[C@@H]2CCCCN2S(=O)(=O)c2cccc(Br)c2)c2cccc(OCC(=O)O)c2)cc1OC [Compound 12, 2-(3-((R)-1-((S)-1-(3-bromophenylsulfonyl)piperidine-2-carbonyloxy)-3-(3,4-dimethoxyphenyl)propyl)phenoxy)acetic acid] | – | – | 3.06 ± 0.25 µM | 17.1 ± 11 µM | –
COc1ccc(CC[C@@H](OC(=O)[C@@H]2CCCCN2S(=O)(=O)c2cc(Cl)c(OC)c(Cl)c2)c2cccc(OCC(=O)O)c2)cc1OC [Compound 22, 2-(3-((R)-1-((S)-1-(3,5-dichloro-4-methoxyphenylsulfonyl)piperidine-2-carbonyloxy)-3-(3,4-dimethoxyphenyl)propyl)phenoxy)acetic acid] | – | – | 16.4 ± 1.7 µM | 17.7 ± 1.6 µM | –
CCOC(=O)C1CCCCN1S(=O)(=O)Cc1ccccc1 (centres unmarked) [Ref. 1, Ethyl 1-(benzylsulfonyl)piperidine-2-carboxylate, reference compound] | – | – | > 100 µM | > 100 µM | –
COc1ccc(CC[C@@H](OC(=O)[C@@H]2CCCCN2S(=O)(=O)c2ccc(C(F)(F)F)cc2)c2cccc(OCC(=O)O)c2)cc1OC [Compound 40, 2-(3-((R)-3-(3,4-dimethoxyphenyl)-1-((S)-1-(4-(trifluoromethyl)phenylsulfonyl)piperidine-2-carbonyloxy)propyl)phenoxy)acetic acid] | 8.9% | 12.3% | – | – | –
COc1ccc(S(=O)(=O)N2CCCC[C@H]2C(=O)O[C@H](CCc2ccc(OC)c(OC)c2)c2cccc(OCC(=O)O)c2)cc1Cl [Compound 16, 2-(3-((R)-1-((S)-1-(3-chloro-4-methoxyphenylsulfonyl)piperidine-2-carbonyloxy)-3-(3,4-dimethoxyphenyl)propyl)phenoxy)aceticacid] | – | – | 18.8 ± 2.4 µM | 20.2 ± 3.5 µM | –
COc1ccc(CC[C@@H](OC(=O)[C@@H]2CCCCN2S(=O)(=O)c2cc3c(c([N+](=O)[O-])c2)OCC3)c2cccc(OCC(=O)O)c2)cc1OC [Compound 25, 2-(3-((R)-3-(3,4-dimethoxyphenyl)-1-((S)-1-(7-nitro-2,3-dihydrobenzofuran-5-ylsulfonyl)piperidine-2-carbonyloxy)propyl)phenoxy)acetic acid] | – | – | 27.2 ± 3.1 µM | 43.9 ± 10.1 µM | –
COc1ccc(CC[C@@H](OC(=O)[C@@H]2CCCCN2S(=O)(=O)c2ccc3[nH]c(=O)sc3c2)c2cccc(OCCN3CCOCC3)c2)cc1OC [Compound 35, (S)-((R)-3-(3,4-dimethoxyphenyl)-1-(3-(2-morpholinoethoxy)phenyl)propyl)1-(2-oxo-2,3-dihydrobenzo[d]thiazol-6-ylsulfonyl)piperidine-2-carboxylate] | – | – | 1.3 ± 0.13 µM | 2.5 ± 0.38 µM | –
COc1ccc(CC[C@@H](OC(=O)[C@@H]2CCCCN2S(=O)(=O)c2ccc(Oc3ccccc3)nc2)c2cccc(OCC(=O)O)c2)cc1OC [Compound 43, 2-(3-((R)-3-(3,4-dimethoxyphenyl)-1-((S)-1-(6-phenoxypyridin-3-ylsulfonyl)piperidine-2-carbonyloxy)propyl)phenoxy)acetic acid] | 3.7% | 11.4% | – | – | –
COc1ccc(CC[C@@H](OC(=O)[C@@H]2CCCCN2S(=O)(=O)c2ccc(C(F)(F)F)c(Cl)c2)c2cccc(OCC(=O)O)c2)cc1OC [Compound 48, 2-(3-((R)-1-((S)-1-(3-chloro-4-(trifluoromethyl)phenylsulfonyl)piperidine-2-carbonyloxy)-3-(3,4-dimethoxyphenyl)propyl)phenoxy)acetic acid] | -0.2% | 11.4% | – | – | –
COc1ccc(CC[C@@H](OC(=O)[C@@H]2CCCCN2S(=O)(=O)c2c(Cl)cccc2Cl)c2cccc(OCC(=O)O)c2)cc1OC [Compound 46, 2-(3-((R)-1-((S)-1-(2,6-dichlorophenylsulfonyl)piperidine-2-carbonyloxy)-3-(3,4-dimethoxyphenyl)propyl)phenoxy)acetic acid] | 3.2% | 9.5% | – | – | –
COc1ccc(CC[C@@H](OC(=O)[C@@H]2CCCCN2S(=O)(=O)c2ccoc2)c2cccc(OCC(=O)O)c2)cc1OC [Compound 53, 2-(3-((R)-3-(3,4-dimethoxyphenyl)-1-((S)-1-(furan-3-ylsulfonyl)piperidine-2-carbonyloxy)propyl)phenoxy)acetic acid] | – | 5.7% | – | – | 2%
CCOC(=O)C1CCCCN1S(=O)(=O)c1cccc([N+](=O)[O-])c1 (centres unmarked) [Ref. 2, Ethyl 1-(3-nitrophenylsulfonyl)piperidine-2-carboxylate, reference compound] | – | – | > 100 µM | > 100 µM | –
COc1ccc(CC[C@@H](OC(=O)[C@@H]2CCCCN2S(=O)(=O)c2cccc3c2ccn3C)c2cccc(OCC(=O)O)c2)cc1OC [Compound 49, 2-(3-((R)-3-(3,4-dimethoxyphenyl)-1-((S)-1-(1-methyl-1H-indol-4-ylsulfonyl)piperidine-2-carbonyloxy)propyl)phenoxy)acetic acid] | -0.8% | 6.6% | – | – | –
COc1ccc(CC[C@@H](OC(=O)[C@@H]2CCCCN2S(=O)(=O)c2cccc(-c3nnc(C)o3)c2)c2cccc(OCC(=O)O)c2)cc1OC [Compound 47, 2-(3-((R)-3-(3,4-dimethoxyphenyl)-1-((S)-1-(3-(5-methyl-1,3,4-oxadiazol-2-yl)phenylsulfonyl)piperidine-2-carbonyloxy)propyl)phenoxy)acetic acid] | 4.9% | 3.8% | – | – | –
COc1ccc(CC[C@@H](OC(=O)[C@@H]2CCCCN2S(=O)(=O)c2c(C)nn(C)c2C)c2cccc(OCC(=O)O)c2)cc1OC [Compound 61, 2-(3-((R)-3-(3,4-dimethoxyphenyl)-1-((S)-1-(1,3,5-trimethyl-1H-pyrazol-4-ylsulfonyl)piperidine-2-carbonyloxy)propyl)phenoxy)acetic acid] | 5.5% | 1.9% | – | – | –
COc1ccc(CC[C@@H](OC(=O)[C@@H]2CCCCN2S(=O)(=O)c2ccc(F)cc2)c2cccc(OCC(=O)O)c2)cc1OC [Compound 38, 2-(3-((R)-3-(3,4-dimethoxyphenyl)-1-((S)-1-(4-fluorophenylsulfonyl)piperidine-2-carbonyloxy)propyl)phenoxy)acetic acid] | 4.3% | 6.6% | – | – | –
COc1ccc(CC[C@@H](OC(=O)[C@@H]2CCCCN2S(=O)(=O)c2ccc3c(ccn3C)c2)c2cccc(OCC(=O)O)c2)cc1OC [Compound 50, 2-(3-((R)-3-(3,4-dimethoxyphenyl)-1-((S)-1-(1-methyl-1H-indol-5-ylsulfonyl)piperidine-2-carbonyloxy)propyl)phenoxy)acetic acid] | 10% | 10.4% | – | – | –
